# Test results published in patent publication US8404738B2 (Hoffmann-La Roche Inc., priority 2011, dated 2013).
# Key:
# recombinant human HDAC8 = molecular target: T1, recombinant human HDAC8 (Homo sapiens, UniProt Q9BY41); test: HDAC8 inhibition: recombinant HDAC8 fluorometric assay; assay type: biochemical; settings: recombinant human HDAC8, substrate Ac-Arg-His-Lys-Lys(ε-acetyl)-AMC; read-out: HDAC8 IC50
# T1 construct: made in house; host or cells: insect cells
# T1 sequence (Q9BY41 1-377): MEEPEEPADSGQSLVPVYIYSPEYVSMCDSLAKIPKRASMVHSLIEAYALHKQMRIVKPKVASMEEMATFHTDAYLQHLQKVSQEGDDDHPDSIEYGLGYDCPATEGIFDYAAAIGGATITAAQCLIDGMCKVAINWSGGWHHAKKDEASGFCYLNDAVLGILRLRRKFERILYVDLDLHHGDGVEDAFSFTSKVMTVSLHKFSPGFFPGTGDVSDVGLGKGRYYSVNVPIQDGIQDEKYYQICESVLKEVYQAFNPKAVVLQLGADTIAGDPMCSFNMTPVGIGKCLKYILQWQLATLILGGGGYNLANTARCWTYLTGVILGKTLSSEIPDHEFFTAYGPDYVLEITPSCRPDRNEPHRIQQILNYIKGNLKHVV
# Procedure: HDAC8 Inhibition by Novel Compounds: Recombinant HDAC8 Fluorometric Assay.
# A competitive inhibitory assay of HDAC8 was carried out by using recombinant HDAC8 and a commercial substrate Ac-Arg-His-Lys-Lys(ε-acetyl)-AMC.
# Compounds were tested for their ability to inhibit histone deacetylase 8 using an in vitro deacetylation assay. The enzyme source for this assay was recombinant human HDAC8 protein expressed and purified from insect cells. […] The substrate consisted of a commercial product Ac-Arg-His-Lys-Lys(ε-acetyl)-AMC (substrate is available from Cayman Chemical). […] 1 μl of half-log diluted compounds were added into wells and incubated for 15 min at rt. After that, 8 μl of substrate solution was transferred to the wells and incubated for 30 min at rt. After deacetylation of the substrate by incubation with HDAC8 enzyme, subsequent exposure to a developing reagent produced a fluorophore that was directly proportional to the level of deacetylation. […] The fluorescence signal was measured by a FlexStation3 plate reader (excitation wave length 340-360 nm; emission wave length 440-465 nm). The HDAC8 IC50 was calculated after normalization and curve fitting using XLfit4.0 software. Inhibition %=[Mean(top)−signal(sample)]×100/[Mean(top)−Mean(bottom)].
# HDAC6 = molecular target: T2, HDAC6 (Homo sapiens, UniProt Q9UBN7); test: Tubulin acetylation cytoblot assay (A549 cells); assay type: cell-based; settings: 17-18 h incubation, tubulin acetylation as marker of HDAC6 inhibition, read-out: Tub-Ac EC50
# T2 construct: endogenous in cells; host or cells: A549 cells
# T2 sequence (Q9UBN7 1-1215): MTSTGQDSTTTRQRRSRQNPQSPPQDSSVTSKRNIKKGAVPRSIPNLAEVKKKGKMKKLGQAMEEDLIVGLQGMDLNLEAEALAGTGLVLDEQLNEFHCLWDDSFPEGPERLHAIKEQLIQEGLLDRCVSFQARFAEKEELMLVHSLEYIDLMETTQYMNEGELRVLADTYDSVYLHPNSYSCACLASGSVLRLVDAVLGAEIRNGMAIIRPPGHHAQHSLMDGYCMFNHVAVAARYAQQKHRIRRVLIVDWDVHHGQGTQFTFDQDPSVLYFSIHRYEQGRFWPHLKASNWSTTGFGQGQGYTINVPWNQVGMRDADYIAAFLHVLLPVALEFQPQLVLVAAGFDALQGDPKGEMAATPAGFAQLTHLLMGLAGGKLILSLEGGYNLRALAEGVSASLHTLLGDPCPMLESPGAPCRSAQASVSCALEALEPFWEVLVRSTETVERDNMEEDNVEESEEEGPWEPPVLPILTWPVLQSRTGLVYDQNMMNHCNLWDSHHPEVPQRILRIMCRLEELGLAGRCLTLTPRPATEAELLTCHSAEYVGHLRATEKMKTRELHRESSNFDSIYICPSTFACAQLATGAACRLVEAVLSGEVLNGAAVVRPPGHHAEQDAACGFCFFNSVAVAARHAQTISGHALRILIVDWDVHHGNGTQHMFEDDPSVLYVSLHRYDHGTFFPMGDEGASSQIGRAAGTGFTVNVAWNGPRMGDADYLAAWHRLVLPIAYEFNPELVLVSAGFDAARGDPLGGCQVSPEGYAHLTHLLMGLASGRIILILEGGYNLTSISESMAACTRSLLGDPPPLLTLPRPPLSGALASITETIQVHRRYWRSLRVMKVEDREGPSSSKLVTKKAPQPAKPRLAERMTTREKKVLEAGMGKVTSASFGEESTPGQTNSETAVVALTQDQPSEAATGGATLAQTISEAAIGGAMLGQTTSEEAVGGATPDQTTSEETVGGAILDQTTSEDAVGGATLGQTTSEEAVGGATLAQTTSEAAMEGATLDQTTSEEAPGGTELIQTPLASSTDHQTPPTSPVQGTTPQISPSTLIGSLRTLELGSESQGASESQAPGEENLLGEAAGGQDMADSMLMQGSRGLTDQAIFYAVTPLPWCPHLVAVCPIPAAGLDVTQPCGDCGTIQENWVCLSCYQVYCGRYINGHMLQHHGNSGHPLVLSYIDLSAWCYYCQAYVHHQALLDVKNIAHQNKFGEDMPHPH
# Procedure: Tubulin Acetylation Induction by Novel Compounds: Tubulin Acetylation Cytoblot Assay.
# Tubulin acetylation is a PD marker for HDAC6 inhibition. The extent of tubulin acetylation represents the inhibitory effect on HDAC6.
# Novel compounds were tested for their ability to inhibit HDAC6 using a cell-based deacetylation assay. Tubulin acetylation was detected by the anti-acetylated tubulin antibody (Sigma) and horse radish peroxidase (HRP) conjugated secondary antibody (KangChen Bio. Tech.). […] 20 μl of diluted compound solution was transferred to the cell culture plate and incubated for 17-18 h. After medium removal and fixation by formaldehyde (3.7% paraformaldehyde in TBS), the cells in the plates were treated with 180 μl of −20° C. MeOH and incubated for 5 min at rt. The cell lysis was incubated with 75 μl of primary anti-acetylated tubulin antibody and secondary HRP conjugated antibody solution (1:750 anti-acetylated tubulin, 1:750 HRP conjugated anti-mouse IgG in antibody dilution buffer not containing sodium azide) for 4 h at 4° C. By adding the HRP substrate, enhanced chemiluminescence (ECL) reagent (GE Healthcare) generated luminescence corresponding to the level of tubulin acetylation. So that 75 μl of ECL was added into the wells and the luminescence from each well was immediately quantified by the plate reader. Based on the luminescence reading, the Tub-Ac EC50s against HDAC6 of the tested compounds were calculated by plotting the curve with XLfit4.0 software. Inhibition %=[signal(sample)−Mean(bottom)]×100/[Mean(top)−Mean(bottom)]
# [1] = system: p21 promoter-luciferase construct; test: p21 reporter gene induction (HeLa cells, p21 promoter-luciferase construct); settings: for p21 RP3: relative gene level of p21 compared to MS275 at 3 μM; for p21 RP10: relative level of p21 compared to MS275 at 10 μM; for p21 RP30: relative level of p21 compared to MS275 at 30 μM;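 as to all read-outs here: transfected HeLa cells exposed to compound for 15 h, luciferase luminescence read from lysates, p21 promoter lacks p53 site, proxy for cellular HDAC1/2/3 inhibition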
SMILES,IC50 (recombinant human HDAC8),EC50 (HDAC6),p21 RP3 [1],p21 RP10 [1],p21 RP30 [1]
"O=C(NO)c1ccc(NC2CCN(c3ccccc3F)C2=O)cc1 (centres unmarked) [Example 2, 4-[1-(2-Fluoro-phenyl)-2-oxo-pyrrolidin-3-ylamino]-N-hydroxy-benzamide]",840 nM,4020 nM,0.33,0.26,0.46
"O=C(NO)c1ccc(NC2CCN(c3cccc(F)c3)C2=O)cc1 (centres unmarked) [Example 3, 4-[1-(3-Fluoro-phenyl)-2-oxo-pyrrolidin-3-ylamino]-N-hydroxy-benzamide]",1090 nM,1560 nM,0.18,0.06,0.08
"O=C(NO)c1ccc(NC2CCN(c3ccc(F)cc3)C2=O)cc1 (centres unmarked) [Example 4, 4-[1-(4-Fluoro-phenyl)-2-oxo-pyrrolidin-3-ylamino]-N-hydroxy-benzamide]",890 nM,3890 nM,0.43,0.31,0.48
"O=C(NO)c1ccc(NC2CCN(c3ccccc3Cl)C2=O)cc1 (centres unmarked) [Example 5, 4-[1-(2-Chloro-phenyl)-2-oxo-pyrrolidin-3-ylamino]-N-hydroxy-benzamide]",370 nM,6670 nM,−0.01,0.06,0.08
"O=C(NO)c1ccc(NC2CCN(c3cccc(Cl)c3)C2=O)cc1 (centres unmarked) [Example 6, 4-[1-(3-Chloro-phenyl)-2-oxo-pyrrolidin-3-ylamino]-N-hydroxy-benzamide]",720 nM,2820 nM,0.03,0.15,0.15
"COc1cccc(N2CCC(Nc3ccc(C(=O)NO)cc3)C2=O)c1 (centres unmarked) [Example 8, N-Hydroxy-4-[1-(3-methoxy-phenyl)-2-oxo-pyrrolidin-3-ylamino]-benzamide]",590 nM,4120 nM,0.09,0.15,0.29
"CC(C)Oc1cccc(N2CCC(Nc3ccc(C(=O)NO)cc3)C2=O)c1 (centres unmarked) [Example 9, N-Hydroxy-4-[1-(3-isopropoxy-phenyl)-2-oxo-pyrrolidin-3-ylamino]-benzamide]",1300 nM,1730 nM,0.24,0.13,0.23
"CC(C)Oc1ccc(N2CCC(Nc3ccc(C(=O)NO)cc3)C2=O)cc1 (centres unmarked) [Example 10, N-Hydroxy-4-[1-(4-isopropoxy-phenyl)-2-oxo-pyrrolidin-3-ylamino]-benzamide]",1800 nM,2150 nM,0.07,0.05,0.05
"O=C(NO)c1ccc(NC2CCN(c3cccc(C(F)(F)F)c3)C2=O)cc1 (centres unmarked) [Example 11, N-Hydroxy-4-[2-oxo-1-(3-trifluoromethyl-phenyl)-pyrrolidin-3-ylamino]-benzamide]",2230 nM,8310 nM,0.39,0.08,0.04
"CC(C)c1cccc(N2CCC(Nc3ccc(C(=O)NO)cc3)C2=O)c1 (centres unmarked) [Example 13, N-Hydroxy-4-[1-(3-isopropyl-phenyl)-2-oxo-pyrrolidin-3-ylamino]-benzamide]",740 nM,1530 nM,0.29,0.19,0.09
"CC(C)c1ccc(N2CCC(Nc3ccc(C(=O)NO)cc3)C2=O)cc1 (centres unmarked) [Example 14, N-Hydroxy-4-[1-(4-isopropyl-phenyl)-2-oxo-pyrrolidin-3-ylamino]-benzamide]",3180 nM,2610 nM,0.13,0.07,0.06
"CC(C)(C)c1ccc(N2CCC(Nc3ccc(C(=O)NO)cc3)C2=O)cc1 (centres unmarked) [Example 16, 4-[1-(4-tert-Butyl-phenyl)-2-oxo-pyrrolidin-3-ylamino]-N-hydroxy-benzamide]",1870 nM,1060 nM,0.17,0.12,−0.03
"CS(=O)(=O)c1ccc(N2CCC(Nc3ccc(C(=O)NO)cc3)C2=O)cc1 (centres unmarked) [Example 17, N-Hydroxy-4-[1-(4-methanesulfonyl-phenyl)-2-oxo-pyrrolidin-3-ylamino]-benzamide]",1190 nM,11900 nM,0.00,0.02,0.02
"N#Cc1cccc(N2CCC(Nc3ccc(C(=O)NO)cc3)C2=O)c1 (centres unmarked) [Example 18, 4-[1-(3-Cyano-phenyl)-2-oxo-pyrrolidin-3-ylamino]-N-hydroxy-benzamide]",1620 nM,4310 nM,0.61,0.02,−0.01
"N#Cc1ccc(N2CCC(Nc3ccc(C(=O)NO)cc3)C2=O)cc1 (centres unmarked) [Example 19, 4-[1-(4-Cyano-phenyl)-2-oxo-pyrrolidin-3-ylamino]-N-hydroxy-benzamide]",1050 nM,3140 nM,0.46,0.00,−0.03
"O=C(NO)c1ccc(NC2CCN(c3ccc(F)c(Cl)c3)C2=O)cc1 (centres unmarked) [Example 20, 4-[1-(3-Chloro-4-fluoro-phenyl)-2-oxo-pyrrolidin-3-ylamino]-N-hydroxy-benzamide]",1210 nM,960 nM,0.37,0.10,0.12
